No end group written: not given here.

The values that follow come from patent publication US20170202939A1, “PERSONALIZED CANCER VACCINES AND METHODS THEREFOR” (Washington University, priority 2014, published 2017).

The subject of this experiment is TCRβ clonotypes in CD8+ T cell populations. In words: TCRβ CDR3 sequencing of neoantigen-specific CD8+ T cells, pre- and post-vaccine. Also on record: species or system human. As for the experimental part:
Short-term ex-vivo expanded neoantigen-specific T cells were purified to 97-99% purity by cell sorting in a Sony SY3200 BSC (Sony Biotechnology) fitted with a 100 um nozzle, at 30 psi, using 561 nm (585/40) and 642 nm (665/30) lasers and cell pellets were prepared. DNA isolation and TCRβ sequencing was performed by Adaptive Biotechnologies and The Genome Institute at Washington University. Sequencing was performed at either survey (for neoantigen-specific TCRβ reference libraries) or deep (for pre- and post-vaccine CD8+ T cell populations) level (Robins, H., et al., J. Immunol. Methods, 375, 14-19, 2012; Carlson, C. S., et al., Nat. Commun., 4, 2680, 2013). TCRβ V-, D-, J-genes of each CDR3 regions were defined using IMGT (ImMunoGeneTics)/Junctional algorithms and data uploaded into the ImmunoSeq Analyzer (Adaptive Biotechnologies) for analysis. Complete amino acid identity between the reference library and pre- and post-vaccine CD8 samples was required for assigning a TCRβ match. In the reference library, TCRβ clonotypes with frequencies above 0.1% (>100-fold sequencing depth) were set as a threshold for identification of neoantigen-specific TCRβ CDR3 sequences within pre- and post-vaccine CD8+ T cell populations.
Reference T cell receptor-β (TCRβ) complementarity-determining region 3 (CDR3) sequence libraries (shown schematically in FIG. 42, Tables 7-11) were generated from short-term expanded sorted neoantigen-specific T cells (97-99% dextramer-positive), in Tables 7-11, TCRBV, TCRBD and TCRBJ are shown according to consensus nomenclature and CDR3 sequence for each clonotype indicated. Read counts indicates the number of times a given CDR3 sequence was found in the short term ex-vivo expanded neoantigen population. TCRβ clonotypes with frequencies above 0.1% (>100-fold sequencing depth), in reference library, were set as a threshold for identification of neoantigenspecific TCRβ CDR3 sequences within CD8+ T cell populations isolated from PBMC obtained pre- and post-vaccination. […] Frequencies are shown as percent of total reads. […]

Consider IILVAVPHV, for which the “TCRβ clonotypes, post-vaccine” value (CD8+ T cells from PBMC after vaccination) turned out to be 12 clonotypes. In addition, the “TCRβ clonotypes, pre-vaccine” value (CD8+ T cells from PBMC before vaccination) amounted to 2 clonotypes. In addition, where the note is “post-vaccine clonotypes”, the TCRβ families represented was 8 TCRβ families.
